# Test results reported in PubChem BioAssay (NCI).
#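 Compound exposure: 48 hours, 5 concentrations, 96-well plates. At the TGI there is no net growth.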
# How the values were obtained:
# Assay in all cases: NCI anticancer screen, dose series, 48 h
# NCI-H23 lung = tested on: NCI-H23 lung
# SN12C renal = tested on: SN12C renal
# OVCAR-5 ovarian = tested on: OVCAR-5 ovarian
# HCT-116 colon = tested on: HCT-116 colon
# SR leukemia = tested on: SR leukemia
# HL-60(TB) leukemia = tested on: HL-60(TB) leukemia
# TK-10 renal = tested on: TK-10 renal
# UACC-257 melanoma = tested on: UACC-257 melanoma
# MALME-3M melanoma = tested on: MALME-3M melanoma
# SK-MEL-5 melanoma = tested on: SK-MEL-5 melanoma
# K-562 leukemia = tested on: K-562 leukemia
# T-47D breast = tested on: T-47D breast
# UACC-62 melanoma = tested on: UACC-62 melanoma
# PC-3 prostate = tested on: PC-3 prostate
# SK-MEL-28 melanoma = tested on: SK-MEL-28 melanoma
# SF-539 CNS = tested on: SF-539 CNS
# KM12 colon = tested on: KM12 colon
# HT29 colon = tested on: HT29 colon
# OVCAR-8 ovarian = tested on: OVCAR-8 ovarian
# 786-0 renal = tested on: 786-0 renal
# CCRF-CEM leukemia = tested on: CCRF-CEM leukemia
# MOLT-4 leukemia = tested on: MOLT-4 leukemia
# OVCAR-3 ovarian = tested on: OVCAR-3 ovarian
# SF-268 CNS = tested on: SF-268 CNS
# MDA-MB-231 breast = tested on: MDA-MB-231 breast
# MDA-N = tested on: MDA-N
# RPMI-8226 leukemia = tested on: RPMI-8226 leukemia
# MCF7 breast = tested on: MCF7 breast
# SF-295 CNS = tested on: SF-295 CNS
# NCI-H226 lung = tested on: NCI-H226 lung
# ACHN renal = tested on: ACHN renal
# NCI-H522 lung = tested on: NCI-H522 lung
# SNB-75 CNS = tested on: SNB-75 CNS
# COLO 205 colon = tested on: COLO 205 colon
# HCC-2998 colon = tested on: HCC-2998 colon
# EKVX NSCLC = tested on: EKVX NSCLC
# CAKI-1 renal = tested on: CAKI-1 renal
# MDA-MB-435 = tested on: MDA-MB-435
# M14 melanoma = tested on: M14 melanoma
# SK-OV-3 ovarian = tested on: SK-OV-3 ovarian
# NCI-H460 lung = tested on: NCI-H460 lung
# A549 NSCLC = tested on: A549 NSCLC
# IGROV1 ovarian = tested on: IGROV1 ovarian
# HS 578T breast = tested on: HS 578T breast
# OVCAR-4 ovarian = tested on: OVCAR-4 ovarian
# BT-549 breast = tested on: BT-549 breast
# HCT-15 colon = tested on: HCT-15 colon
# U251 CNS = tested on: U251 CNS
# SK-MEL-2 melanoma = tested on: SK-MEL-2 melanoma
# HOP-62 NSCLC = tested on: HOP-62 NSCLC
# A498 renal = tested on: A498 renal
# SNB-19 CNS = tested on: SNB-19 CNS
# SW-620 colon = tested on: SW-620 colon
# DU-145 prostate = tested on: DU-145 prostate
# LOX IMVI melanoma = tested on: LOX IMVI melanoma
# UO-31 renal = tested on: UO-31 renal
# NCI/ADR-RES ovarian = tested on: NCI/ADR-RES ovarian
# HOP-92 NSCLC = tested on: HOP-92 NSCLC
compound,measurement,setting,value
CCC1OC(=O)CC(O)C(C)C(OC2OC(C)C(O)C(N(C)C)C2O)C(CC=O)CC(C)C(=O)/C=C/C2(C)OC2C1C (stereo unspecified),TGI,NCI-H23 lung,91.8 µM
same,TGI,SN12C renal,30.5 µM
same,TGI,OVCAR-5 ovarian,> 100 µM
same,TGI,HCT-116 colon,37.2 µM
same,TGI,SR leukemia,44.6 µM
same,TGI,HL-60(TB) leukemia,> 100 µM
same,TGI,TK-10 renal,> 100 µM
same,TGI,UACC-257 melanoma,44.7 µM
same,TGI,MALME-3M melanoma,27.4 µM
same,TGI,SK-MEL-5 melanoma,> 100 µM
same,TGI,K-562 leukemia,> 100 µM
same,TGI,T-47D breast,53.7 µM
same,TGI,UACC-62 melanoma,49.8 µM
same,TGI,PC-3 prostate,> 100 µM
same,TGI,SK-MEL-28 melanoma,> 100 µM
same,TGI,SF-539 CNS,80.5 µM
same,TGI,KM12 colon,29.6 µM
same,TGI,HT29 colon,37 µM
same,TGI,OVCAR-8 ovarian,18.3 µM
same,TGI,786-0 renal,72.6 µM
same,TGI,CCRF-CEM leukemia,60.2 µM
same,TGI,MOLT-4 leukemia,41.2 µM
same,TGI,OVCAR-3 ovarian,73.6 µM
same,TGI,SF-268 CNS,79.8 µM
same,TGI,MDA-MB-231 breast,66.2 µM
same,TGI,MDA-N,> 100 µM
same,TGI,RPMI-8226 leukemia,34.6 µM
same,TGI,MCF7 breast,50.7 µM
same,TGI,SF-295 CNS,> 100 µM
same,TGI,NCI-H226 lung,> 100 µM
same,TGI,ACHN renal,> 100 µM
same,TGI,NCI-H522 lung,33 µM
same,TGI,SNB-75 CNS,90 µM
same,TGI,COLO 205 colon,36.3 µM
same,TGI,HCC-2998 colon,31.2 µM
same,TGI,EKVX NSCLC,> 100 µM
same,TGI,CAKI-1 renal,82.1 µM
same,TGI,MDA-MB-435,> 100 µM
same,TGI,M14 melanoma,39.2 µM
same,TGI,SK-OV-3 ovarian,> 100 µM
same,TGI,NCI-H460 lung,> 100 µM
same,TGI,A549 NSCLC,> 100 µM
same,TGI,IGROV1 ovarian,47.6 µM
same,TGI,HS 578T breast,76.1 µM
same,TGI,OVCAR-4 ovarian,> 100 µM
same,TGI,BT-549 breast,99.6 µM
same,TGI,HCT-15 colon,> 100 µM
same,TGI,U251 CNS,> 100 µM
same,TGI,SK-MEL-2 melanoma,> 100 µM
same,TGI,HOP-62 NSCLC,> 100 µM
same,TGI,A498 renal,94.3 µM
same,TGI,SNB-19 CNS,> 100 µM
same,TGI,SW-620 colon,41.2 µM
same,TGI,DU-145 prostate,> 100 µM
same,TGI,LOX IMVI melanoma,34.1 µM
S=C(Nc1ccccc1)c1ccc(CN2CCCCC2)s1,TGI,NCI-H23 lung,42.8 µM
same,TGI,UO-31 renal,30.6 µM
same,TGI,OVCAR-5 ovarian,35 µM
same,TGI,HCT-116 colon,34.5 µM
same,TGI,SR leukemia,51.5 µM
same,TGI,HL-60(TB) leukemia,34.5 µM
same,TGI,NCI/ADR-RES ovarian,> 100 µM
same,TGI,UACC-257 melanoma,46.2 µM
same,TGI,MALME-3M melanoma,46.6 µM
same,TGI,SK-MEL-5 melanoma,31.2 µM
same,TGI,K-562 leukemia,43.6 µM
same,TGI,T-47D breast,85.3 µM
same,TGI,UACC-62 melanoma,37.2 µM
same,TGI,PC-3 prostate,> 100 µM
same,TGI,SK-MEL-28 melanoma,35.3 µM
same,TGI,SF-539 CNS,> 100 µM
same,TGI,KM12 colon,36.9 µM
same,TGI,HT29 colon,24.1 µM
same,TGI,OVCAR-8 ovarian,39.7 µM
same,TGI,786-0 renal,34.2 µM
same,TGI,CCRF-CEM leukemia,41.3 µM
same,TGI,MOLT-4 leukemia,71.4 µM
same,TGI,OVCAR-3 ovarian,> 100 µM
same,TGI,SF-268 CNS,> 100 µM
same,TGI,MDA-N,33.4 µM
same,TGI,RPMI-8226 leukemia,70.4 µM
same,TGI,MCF7 breast,35.7 µM
same,TGI,SF-295 CNS,37.5 µM
same,TGI,ACHN renal,> 100 µM
same,TGI,NCI-H522 lung,35.4 µM
same,TGI,COLO 205 colon,36.4 µM
same,TGI,HCC-2998 colon,37.9 µM
same,TGI,EKVX NSCLC,> 100 µM
same,TGI,CAKI-1 renal,48.8 µM
same,TGI,MDA-MB-435,35.8 µM
same,TGI,M14 melanoma,32.9 µM
same,TGI,SK-OV-3 ovarian,36.9 µM
same,TGI,NCI-H460 lung,45.4 µM
same,TGI,A549 NSCLC,98.3 µM
same,TGI,IGROV1 ovarian,48.9 µM
same,TGI,HS 578T breast,60.5 µM
same,TGI,OVCAR-4 ovarian,> 100 µM
same,TGI,BT-549 breast,61.3 µM
same,TGI,HCT-15 colon,36.2 µM
same,TGI,U251 CNS,44.2 µM
same,TGI,SK-MEL-2 melanoma,43.5 µM
same,TGI,HOP-62 NSCLC,64.8 µM
same,TGI,A498 renal,37.4 µM
same,TGI,SNB-19 CNS,44 µM
same,TGI,SW-620 colon,44.7 µM
same,TGI,DU-145 prostate,> 100 µM
same,TGI,LOX IMVI melanoma,32.5 µM
CCc1n[nH]c(=O)n1O,TGI,NCI-H23 lung,> 100 µM
same,TGI,UO-31 renal,> 100 µM
same,TGI,SN12C renal,> 100 µM
same,TGI,HCT-116 colon,> 100 µM
same,TGI,SR leukemia,> 100 µM
same,TGI,HL-60(TB) leukemia,> 100 µM
same,TGI,TK-10 renal,> 100 µM
same,TGI,NCI/ADR-RES ovarian,> 100 µM
same,TGI,UACC-257 melanoma,> 100 µM
same,TGI,MALME-3M melanoma,> 100 µM
same,TGI,SK-MEL-5 melanoma,> 100 µM
same,TGI,HOP-92 NSCLC,> 100 µM
same,TGI,K-562 leukemia,> 100 µM
same,TGI,T-47D breast,> 100 µM
same,TGI,UACC-62 melanoma,> 100 µM
same,TGI,SK-MEL-28 melanoma,> 100 µM
same,TGI,SF-539 CNS,> 100 µM
same,TGI,KM12 colon,> 100 µM
same,TGI,HT29 colon,> 100 µM
same,TGI,OVCAR-8 ovarian,> 100 µM
same,TGI,786-0 renal,> 100 µM
same,TGI,CCRF-CEM leukemia,> 100 µM
same,TGI,MOLT-4 leukemia,> 100 µM
same,TGI,OVCAR-3 ovarian,> 100 µM
same,TGI,SF-268 CNS,> 100 µM
same,TGI,MDA-MB-231 breast,> 100 µM
same,TGI,MDA-N,> 100 µM
same,TGI,MCF7 breast,> 100 µM
same,TGI,SF-295 CNS,> 100 µM
same,TGI,NCI-H226 lung,> 100 µM
same,TGI,ACHN renal,> 100 µM
same,TGI,NCI-H522 lung,> 100 µM
same,TGI,COLO 205 colon,> 100 µM
same,TGI,EKVX NSCLC,> 100 µM
same,TGI,CAKI-1 renal,> 100 µM
same,TGI,MDA-MB-435,> 100 µM
same,TGI,SK-OV-3 ovarian,> 100 µM
same,TGI,A549 NSCLC,> 100 µM
same,TGI,IGROV1 ovarian,> 100 µM
same,TGI,HS 578T breast,> 100 µM
same,TGI,OVCAR-4 ovarian,> 100 µM
same,TGI,BT-549 breast,> 100 µM
same,TGI,U251 CNS,> 100 µM
same,TGI,SK-MEL-2 melanoma,> 100 µM
same,TGI,HOP-62 NSCLC,> 100 µM
same,TGI,A498 renal,> 100 µM
same,TGI,SNB-19 CNS,> 100 µM
same,TGI,SW-620 colon,> 100 µM
same,TGI,DU-145 prostate,> 100 µM
